Where a SMILES comes first, the peptide text is derived from it.
Test: Solubility pre-screen of peptides
Conditions: pre-screened for solubility in an aqueous, acidic milieu; YES/NO
Description: Methods The assay employed is a competitive MHC class II binding assay, wherein each peptide is analysed for its ability to displace a known control binder from each of the human MHC class II allotypes investigated.
Also shown is the solubility status of the peptide at the highest concentrations in the aqueous solution of the binding assay. The value illustrates the lowest concentration at which an insoluble white precipitate is seen.

Row | Structure (SMILES) | Solubility test
1 | CC[C@H](C)[C@H](N)C(=O)N[C@@H](CC(=O)O)C(=O)N[C@@H](CC(C)C)C(=O)N[C@@H](CCCNC(=N)N)C(=O)N[C@@H](CCC(N)=O)C(=O)N[C@@H](CCSC)C(=O)N[C@@H](CCCNC(=N)N)C(=O)N[C@H](C(=O)N[C@H](C(=O)N[C@H](C(=O)N1CCC[C@H]1C(=O)N[C@H](C(=O)N[C@@H](CCCNC(=N)N)C(=O)O)[C@@H](C)CC)[C@@H](C)O)C(C)C)[C@@H](C)O [HDM01] (H-IDLRQMRTVTPIR-OH; N-terminus and C-terminus assumed) | YES
2 | CC[C@H](C)[C@H](NC(=O)[C@@H]1CCCN1C(=O)[C@@H](NC(=O)[C@@H](NC(=O)[C@@H](NC(=O)[C@@H](N)CCCNC(=N)N)[C@@H](C)O)C(C)C)[C@@H](C)O)C(=O)N[C@@H](CCCNC(=N)N)C(=O)N[C@@H](CCSC)C(=O)N[C@@H](CCC(N)=O)C(=O)NCC(=O)NCC(=O)N[C@@H](CS)C(=O)NCC(=O)O [HDM02] (H-RTVTPIRMQGGCG-OH; N-terminus and C-terminus assumed) | YES
3 | CC(C)C[C@H](NC(=O)[C@H](CC(=O)O)NC(=O)[C@H](CC(C)C)NC(=O)[C@H](CO)NC(=O)[C@H](CCC(N)=O)NC(=O)[C@H](CC(N)=O)NC(=O)[C@@H](N)CCCNC(=N)N)C(=O)N[C@@H](C)C(=O)N[C@@H](CCC(=O)O)C(=O)N[C@@H](CCC(N)=O)C(=O)N[C@@H](CCC(=O)O)C(=O)N[C@@H](CC(C)C)C(=O)N[C@H](C(=O)N[C@@H](CC(=O)O)C(=O)N[C@@H](CS)C(=O)N[C@@H](C)C(=O)N[C@@H](CO)C(=O)N[C@@H](CCC(N)=O)C(=O)N[C@@H](Cc1c[nH]cn1)C(=O)O)C(C)C [HDM03C] (H-RNQSLDLAEQELVDCASQH-OH; N-terminus and C-terminus assumed) | YES
4 | CC[C@H](C)[C@H](NC(=O)[C@H](Cc1ccc(O)cc1)NC(=O)[C@@H](N)CCC(=O)O)C(=O)N[C@@H](CCC(N)=O)C(=O)N[C@@H](Cc1c[nH]cn1)C(=O)N[C@@H](CC(N)=O)C(=O)NCC(=O)N[C@H](C(=O)N[C@H](C(=O)N[C@@H](CCC(N)=O)C(=O)N[C@@H](CCC(=O)O)C(=O)N[C@@H](CO)C(=O)N[C@@H](Cc1ccc(O)cc1)C(=O)O)C(C)C)C(C)C [HDM05] (H-EYIQHNGVVQESY-OH; N-terminus and C-terminus assumed) | YES
5 | CC(C)[C@H](NC(=O)[C@H](Cc1ccc(O)cc1)NC(=O)[C@@H](N)CCCNC(=N)N)C(=O)N[C@@H](C)C(=O)N[C@@H](CCCNC(=N)N)C(=O)N[C@@H](CCC(=O)O)C(=O)N[C@@H](CCC(N)=O)C(=O)N[C@@H](CO)C(=O)N[C@@H](CS)C(=O)N[C@@H](CCCNC(=N)N)C(=O)N[C@@H](CCCNC(=N)N)C(=O)N1CCC[C@H]1C(=O)N[C@@H](CC(N)=O)C(=O)O [HDM06] (H-RYVAREQSCRRPN-OH; N-terminus and C-terminus assumed) | YES
6 | CC[C@H](C)[C@H](NC(=O)[C@H](CCCCN)NC(=O)[C@H](CC(N)=O)NC(=O)[C@@H](NC(=O)[C@H](CC(N)=O)NC(=O)[C@@H]1CCCN1)C(C)C)C(=O)N[C@@H](CCCNC(=N)N)C(=O)N[C@@H](CCC(=O)O)C(=O)N[C@@H](C)C(=O)N[C@@H](CC(C)C)C(=O)N[C@@H](C)C(=O)N[C@@H](CCC(N)=O)C(=O)N[C@H](C(=O)O)[C@@H](C)O [HDM07] (H-PNVNKIREALAQT-OH; N-terminus and C-terminus assumed) | YES
7 | CC[C@H](C)[C@H](NC(=O)[C@H](CCCCN)NC(=O)[C@@H](N)CC(N)=O)C(=O)N[C@@H](CCCNC(=N)N)C(=O)N[C@@H](CCC(=O)O)C(=O)N[C@@H](C)C(=O)N[C@@H](CC(C)C)C(=O)N[C@@H](C)C(=O)N[C@@H](CCC(N)=O)C(=O)N[C@H](C(=O)N[C@@H](Cc1c[nH]cn1)C(=O)N[C@@H](CO)C(=O)N[C@@H](C)C(=O)O)[C@@H](C)O [HDM08] (H-NKIREALAQTHSA-OH; N-terminus and C-terminus assumed) | YES
8 | CC[C@H](C)[C@H](NC(=O)[C@@H](NC(=O)[C@H](C)NC(=O)[C@@H](NC(=O)[C@H](C)NC(=O)[C@H](CO)NC(=O)[C@H](Cc1c[nH]cn1)NC(=O)[C@@H](NC(=O)[C@H](CCC(N)=O)NC(=O)[C@H](C)NC(=O)[C@H](CC(C)C)NC(=O)[C@H](C)NC(=O)[C@H](CCC(=O)O)NC(=O)[C@@H](N)CCCNC(=N)N)[C@@H](C)O)[C@@H](C)CC)C(C)C)C(=O)O [HDM09A] (H-REALAQTHSAIAVI-OH; N-terminus and C-terminus assumed) | YES
9 | CC[C@H](C)[C@H](N)C(=O)NCC(=O)N[C@H](C(=O)N[C@@H](CCCCN)C(=O)N[C@@H](CC(=O)O)C(=O)N[C@@H](CC(C)C)C(=O)N[C@@H](CC(=O)O)C(=O)N[C@@H](C)C(=O)N[C@@H](Cc1ccccc1)C(=O)N[C@@H](CCCNC(=N)N)C(=O)N[C@@H](Cc1c[nH]cn1)C(=O)N[C@@H](Cc1ccc(O)cc1)C(=O)N[C@@H](CC(=O)O)C(=O)O)[C@@H](C)CC [HDM11] (H-IGIKDLDAFRHYD-OH; N-terminus and C-terminus assumed) | YES
10 | CC(C)C[C@H](NC(=O)[C@H](CC(=O)O)NC(=O)[C@@H](N)CCCCN)C(=O)N[C@@H](CC(=O)O)C(=O)N[C@@H](C)C(=O)N[C@@H](Cc1ccccc1)C(=O)N[C@@H](CCCNC(=N)N)C(=O)N[C@@H](Cc1c[nH]cn1)C(=O)N[C@@H](Cc1ccc(O)cc1)C(=O)N[C@@H](CC(=O)O)C(=O)NCC(=O)N[C@@H](CCCNC(=N)N)C(=O)N[C@H](C(=O)O)[C@@H](C)O [HDM12] (H-KDLDAFRHYDGRT-OH; N-terminus and C-terminus assumed) | YES
11 | C[C@@H](O)[C@H](NC(=O)[C@H](CC(=O)O)NC(=O)[C@H](Cc1c[nH]c2ccccc12)NC(=O)[C@H](CO)NC(=O)[C@H](CC(N)=O)NC(=O)[C@@H](N)CCCNC(=N)N)C(=O)N[C@@H](CC(N)=O)C(=O)N[C@@H](Cc1c[nH]c2ccccc12)C(=O)NCC(=O)N[C@@H](CC(=O)O)C(=O)N[C@@H](CC(N)=O)C(=O)NCC(=O)N[C@@H](Cc1ccc(O)cc1)C(=O)NCC(=O)O [HDM16A] (H-RNSWDTNWGDNGYG-OH; N-terminus and C-terminus assumed) | YES
12 | CC(C)C[C@H](NC(=O)[C@H](CC(=O)O)NC(=O)[C@H](CC(C)C)NC(=O)[C@H](CCC(=O)O)NC(=O)[C@H](CO)NC(=O)[C@@H]1CCCN1C(=O)[C@@H](NC(=O)[C@H](CC(N)=O)NC(=O)[C@@H](NC(=O)[C@H](CO)NC(=O)[C@@H](N)CC(N)=O)C(C)C)C(C)C)C(=O)N[C@@H](CCCNC(=N)N)C(=O)N[C@@H](CO)C(=O)N[C@@H](CC(C)C)C(=O)N[C@@H](CCCNC(=N)N)C(=O)N[C@H](C(=O)O)[C@@H](C)O [HDM17] (H-NSVNVPSELDLRSLRT-OH; N-terminus and C-terminus assumed) | YES
13 | CC[C@H](C)[C@H](NC(=O)[C@H](CCC(=O)O)NC(=O)[C@H](Cc1c[nH]cn1)NC(=O)[C@H](CC(N)=O)NC(=O)[C@H](C)NC(=O)[C@H](CS)NC(=O)[C@H](CC(=O)O)NC(=O)[C@H](CCCCN)NC(=O)[C@@H](NC(=O)[C@H](CC(=O)O)NC(=O)[C@@H](NC(=O)[C@H](CCC(N)=O)NC(=O)[C@@H](N)CC(=O)O)C(C)C)C(C)C)C(=O)N[C@@H](CCCCN)C(=O)N[C@@H](CCCCN)C(=O)O [HDM19] (H-DQVDVKDCANHEIKK-OH; N-terminus and C-terminus assumed) | YES
14 | CC(C)C[C@H](NC(=O)[C@H](CCC(N)=O)NC(=O)[C@H](Cc1ccccc1)NC(=O)[C@@H]1CCCN1C(=O)[C@@H](N)CCCCN)C(=O)N[C@@H](CCC(=O)O)C(=O)N[C@@H](C)C(=O)N[C@H](C(=O)N[C@@H](Cc1ccccc1)C(=O)N[C@@H](CCC(=O)O)C(=O)N[C@@H](C)C(=O)N[C@@H](CC(N)=O)C(=O)N[C@@H](CCC(N)=O)C(=O)N[C@@H](CC(N)=O)C(=O)N[C@H](C(=O)N[C@@H](CCCCN)C(=O)O)[C@@H](C)O)C(C)C [HDM21A] (H-KPFQLEAVFEANQNTK-OH; N-terminus and C-terminus assumed) | YES
15 | CC(C)C[C@H](NC(=O)[C@H](CCC(N)=O)NC(=O)[C@H](Cc1ccccc1)NC(=O)[C@@H]1CCCN1C(=O)[C@H](CCCCN)NC(=O)CNC(=O)[C@@H](N)CCCNC(=N)N)C(=O)N[C@@H](CCC(=O)O)C(=O)N[C@@H](C)C(=O)N[C@H](C(=O)N[C@@H](Cc1ccccc1)C(=O)N[C@@H](CCC(=O)O)C(=O)N[C@@H](C)C(=O)N[C@@H](CC(N)=O)C(=O)N[C@@H](CCC(N)=O)C(=O)N[C@@H](CC(N)=O)C(=O)N[C@H](C(=O)O)[C@@H](C)O)C(C)C [HDM21B] (H-RGKPFQLEAVFEANQNT-OH; N-terminus and C-terminus assumed) | YES
16 | CC(C)C[C@H](NC(=O)[C@H](CCC(N)=O)NC(=O)[C@H](Cc1ccccc1)NC(=O)[C@@H]1CCCN1C(=O)[C@@H](N)CCCCN)C(=O)N[C@@H](CCC(=O)O)C(=O)N[C@@H](C)C(=O)N[C@H](C(=O)N[C@@H](Cc1ccccc1)C(=O)N[C@@H](CCC(=O)O)C(=O)N[C@@H](C)C(=O)N[C@@H](CC(N)=O)C(=O)N[C@@H](CCC(N)=O)C(=O)N[C@@H](CC(N)=O)C(=O)N[C@H](C(=O)O)[C@@H](C)O)C(C)C [HDM21] (H-KPFQLEAVFEANQNT-OH; N-terminus and C-terminus assumed) | YES
17 | CC(C)[C@H](NC(=O)[C@H](C)NC(=O)[C@@H](N)CCC(=O)O)C(=O)N[C@@H](Cc1ccccc1)C(=O)N[C@@H](CCC(=O)O)C(=O)N[C@@H](C)C(=O)N[C@@H](CC(N)=O)C(=O)N[C@@H](CCC(N)=O)C(=O)N[C@@H](CC(N)=O)C(=O)N[C@H](C(=O)N[C@@H](CCCCN)C(=O)N[C@H](C(=O)N[C@@H](C)C(=O)N[C@@H](CCCCN)C(=O)O)[C@@H](C)O)[C@@H](C)O [HDM22A] (H-EAVFEANQNTKTAK-OH; N-terminus and C-terminus assumed) | YES
18 | CC[C@H](C)[C@H](NC(=O)[C@H](CCC(=O)O)NC(=O)[C@@H](NC(=O)[C@H](CCCCN)NC(=O)[C@H](C)N)[C@@H](C)CC)C(=O)N[C@@H](CCCCN)C(=O)N[C@@H](C)C(=O)N[C@@H](CO)C(=O)N[C@@H](CC(C)C)C(=O)N[C@@H](CC(=O)O)C(=O)NCC(=O)N[C@@H](CC(C)C)C(=O)N[C@@H](CCC(=O)O)C(=O)O [HDM27] (H-AKIEIKASLDGLE-OH; N-terminus and C-terminus assumed) | YES

— patent publication US9744222B2, “Peptide for vaccine” (Circassia Limited, priority 2007, dated 2017)
